Experimental data from patent US8268797B2, “Combination therapy for the treatment of cancer” (Isis Pharmaceuticals, Inc., priority 2008, dated 2012).

Experiments:
A549 xenografts = assay: A549 human non-small cell lung cancer xenograft tumor volume in athymic nude mice; assay type: in vivo; details: for A549 Xenograft Tumor Volume, Mean / Percent Reduction of A549 Tumor Size on Day 75: ASO 50 mg/kg iv, cisplatin 5 mg/kg IP weekly; for A549 Xenograft Tumor Volume, Mean: nude mice; for Percent Reduction of A549 Tumor Size on Day 75: negative number indicates reduction vs. control
Method: (§1) Xenograft studies are carried out as described in Graff et al. (2005) Cancer Res. 65:7462-7469. Five million human cancer cells representing non-small cell lung cancer (line A549; ATCC, accession no. CCL-185; line NCI-H1975; ATCC, accession no. CRL-5908) are injected subcutaneously in the flank of 6-8 week old, athymic nude mice (Harlan, Indianapolis, Ind.) in a 1:1 mixture of serum-free growth medium and matrigel (Becton Dickinson, Bedford, Mass., catalogue #354234). Mice are monitored daily for palpable tumors.
(§2) When tumor volumes reach ˜50-100 mm^3, mice are randomized to treatment groups (Graff et al. (2007) J. Clin. Invest. 117:2638-48). Body weight is monitored each time tumors are measured.
(§3) For treatment, all mice are injected intravenously with the eIF-4E ASO in saline in a total volume of 200 μl. The ASO consists of the nucleotide sequence 5′-[…]-3′ (SEQ ID NO:1), in which every internucleoside linkage is a phosphorothioate linkage, nucleotides 1-5 and 16-20 reading from the 5′ end to the 3′ end each comprise a 2′-O-(2-methoxyethyl) sugar, nucleotides 6-15 are 2′-deoxynucleotides, every cytosine residue is a 5-methylcytosine, and which is in the form of a sodium salt. The mice are first injected with an initial loading dose of 50 mg/kg ASO for 3 consecutive days, followed by 50 mg/kg thrice weekly thereafter.
(§4) Cisplatin dosing begins 8 days after the first ASO dose to allow time for reduction of eIF-4E protein expression. Mice are dosed intraperitoneally (IP) with 2 or 5 mg/kg cisplatin (Teva Parenteral Medicines, Inc.; 0703-5748-11) from an infusion concentrate diluted in saline, in a volume of 200 μl once weekly for 65 days. One mL of infusion concentrate (1 mg/mL) contains 1 mg cisplatin, 9 mg sodium chloride, hydrochloric acid and/or sodium hydroxide to pH 3.2-4.4, and water for injection.
(§5) The vehicle only group is dosed with saline.
(§6) Tumor volumes are calculated measuring the largest (L) and smallest (W) diameters with a caliper. The formula is: Volume=L×W^2×0.534. Tumor volume data are transformed to a log scale to equalize variance across time and treatment groups. The log volume data are analyzed with a two-way repeated measures analysis of variance by time and treatment using SAS PROC MIXED software (SAS Institute Inc, Cary, N.C.) using the spatial power covariance structure. Treatment groups are compared to the control group at each time point and overall. The data may be plotted as means and standard errors for each treatment group versus time. Additivity is assessed in two ways: (1) as an overall interaction effect between the ASO and cisplatin in the repeated measures analysis, and (2) by using the Bliss Independence method on the final day of the study (C. I. Bliss (1939) Ann. AppL Biol. 26:585-615). These two methods yield the same results.

H1975 xenografts = assay: H1975 human non-small cell lung cancer xenograft tumor volume in athymic nude mice; assay type: in vivo; details: for H1975 Xenograft Tumor Volume, Mean / Percent Reduction of H1975 Tumor Size on Day 43: ASO 50 mg/kg iv, cisplatin 5 mg/kg IP weekly; for H1975 Xenograft Tumor Volume, Mean: nude mice; for Percent Reduction of H1975 Tumor Size on Day 43: negative number indicates reduction vs. control
Method: as §1, §2, §3, §4, §5, §6

Compound | A549 Xenograft Tumor Volume, Mean (A549 xenografts; Day 11) [mm^3] | A549 Xenograft Tumor Volume, Mean (A549 xenografts; Day 14) [mm^3] | A549 Xenograft Tumor Volume, Mean (A549 xenografts; Day 18) [mm^3] | A549 Xenograft Tumor Volume, Mean (A549 xenografts; Day 21) [mm^3] | A549 Xenograft Tumor Volume, Mean (A549 xenografts; Day 25) [mm^3] | A549 Xenograft Tumor Volume, Mean (A549 xenografts; Day 28) [mm^3] | A549 Xenograft Tumor Volume, Mean (A549 xenografts; Day 32) [mm^3] | A549 Xenograft Tumor Volume, Mean (A549 xenografts; Day 36) [mm^3] | A549 Xenograft Tumor Volume, Mean (A549 xenografts; Day 40) [mm^3] | A549 Xenograft Tumor Volume, Mean (A549 xenografts; Day 43) [mm^3] | A549 Xenograft Tumor Volume, Mean (A549 xenografts; Day 47) [mm^3] | A549 Xenograft Tumor Volume, Mean (A549 xenografts; Day 50) [mm^3] | A549 Xenograft Tumor Volume, Mean (A549 xenografts; Day 54) [mm^3] | A549 Xenograft Tumor Volume, Mean (A549 xenografts; Day 57) [mm^3] | A549 Xenograft Tumor Volume, Mean (A549 xenografts; Day 61) [mm^3] | A549 Xenograft Tumor Volume, Mean (A549 xenografts; Day 64) [mm^3] | A549 Xenograft Tumor Volume, Mean (A549 xenografts; Day 68) [mm^3] | A549 Xenograft Tumor Volume, Mean (A549 xenografts; Day 71) [mm^3] | A549 Xenograft Tumor Volume, Mean (A549 xenografts; Day 75) [mm^3] | Percent Reduction of A549 Tumor Size on Day 75 (A549 xenografts; Day 75) [%] | other results
N.N.[Cl][Pt][Cl] [Cisplatin, cis-Diamminedichloroplatinum (II), reference compound] | 85.43 | 94.63 | 124.68 | 137.74 | 210.75 | 238.78 | 283.12 | 310.61 | 367.44 | 412.68 | 405.18 | 428.84 | 478.35 | 482.77 | 478.95 | 529.51 | 520.83 | 564.57 | 535.33 | −31.9 | H1975 Xenograft Tumor Volume, Mean (H1975 xenografts; Day 7): 40.02 mm^3; H1975 Xenograft Tumor Volume, Mean (H1975 xenografts; Day 12): 90.76 mm^3; H1975 Xenograft Tumor Volume, Mean (H1975 xenografts; Day 15): 112.12 mm^3; H1975 Xenograft Tumor Volume, Mean (H1975 xenografts; Day 19): 172.5 mm^3; H1975 Xenograft Tumor Volume, Mean (H1975 xenografts; Day 22): 295.95 mm^3; H1975 Xenograft Tumor Volume, Mean (H1975 xenografts; Day 26): 595.06 mm^3; H1975 Xenograft Tumor Volume, Mean (H1975 xenografts; Day 29): 863.18 mm^3; H1975 Xenograft Tumor Volume, Mean (H1975 xenografts; Day 33): 1221.36 mm^3; H1975 Xenograft Tumor Volume, Mean (H1975 xenografts; Day 36): 1740.85 mm^3; H1975 Xenograft Tumor Volume, Mean (H1975 xenografts; Day 40): 2095.44 mm^3; H1975 Xenograft Tumor Volume, Mean (H1975 xenografts; Day 43): 2798.22 mm^3; Percent Reduction of H1975 Tumor Size on Day 43 (H1975 xenografts; Day 43): −19.6%
d(P-thio) ([2′-O-(2-methoxyethyl)]m5rU-([2′-O-(2-methoxyethyl)]rG-([2′-O-(2-methoxyethyl)]m5rU-([2′-O-(2-methoxyethyl)]mSrC-([2′-O-(2-methoxyethyl)]rA-T-A-T-T-m5C-m5C-T-G-G-A ([2′-O-(2-methoxyethyl)]m5rU-([2′-O-(2-methoxyethyl)]m5rC-([2′-O-(2-methoxyethyl)]m5rC-([2′-O-(2-methoxyethyl)]m5rU-([2′-O-(2-methoxyethyl)]m5rU) [eIF-4E ASO] | 86.39 | 87.36 | 141.7 | 134.88 | 212.4 | 251.64 | 309.94 | 402.67 | 439.54 | 499.06 | 455.53 | 463.92 | 520.9 | 550.29 | 597.72 | 618.75 | 594.08 | 566.2 | 608.86 | −22.6 | sensitization of tumor cells to the growth- and proliferation-inhibiting action of cisplatin (A549 xenografts; A549 xenografts): sensitizes the tumor cells; H1975 Xenograft Tumor Volume, Mean (H1975 xenografts; Day 7): 45.83 mm^3; H1975 Xenograft Tumor Volume, Mean (H1975 xenografts; Day 12): 85.9 mm^3; H1975 Xenograft Tumor Volume, Mean (H1975 xenografts; Day 15): 121.6 mm^3; H1975 Xenograft Tumor Volume, Mean (H1975 xenografts; Day 19): 255.64 mm^3; H1975 Xenograft Tumor Volume, Mean (H1975 xenografts; Day 22): 376.84 mm^3; H1975 Xenograft Tumor Volume, Mean (H1975 xenografts; Day 26): 742.98 mm^3; H1975 Xenograft Tumor Volume, Mean (H1975 xenografts; Day 29): 1100.19 mm^3; H1975 Xenograft Tumor Volume, Mean (H1975 xenografts; Day 33): 1485.65 mm^3; H1975 Xenograft Tumor Volume, Mean (H1975 xenografts; Day 36): 2164.31 mm^3; H1975 Xenograft Tumor Volume, Mean (H1975 xenografts; Day 40): 2901.75 mm^3; H1975 Xenograft Tumor Volume, Mean (H1975 xenografts; Day 43): 3881.36 mm^3; Percent Reduction of H1975 Tumor Size on Day 43 (H1975 xenografts; Day 43): 11.5%; sensitization of tumor cells to the growth- and proliferation-inhibiting action of cisplatin (H1975 xenografts; H1975 xenografts): sensitizes the tumor cells
